Laboratory results taken from PubChem BioAssay (NCI).
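Five compound concentrations were applied to cells in 96-well plates for 48 hours; endpoints were derived by simple linear interpolation of the resulting dose-response curve. TGI: concentration producing complete growth inhibition.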

Experiments:
Experiment in all cases: NCI anticancer screen, dose series, 48 h
[1] = tested on: TK-10 renal
[2] = tested on: HOP-62 NSCLC
[3] = tested on: NCI-H522 lung
[4] = tested on: BT-549 breast
[5] = tested on: A549 NSCLC
[6] = tested on: RXF 393 renal
[7] = tested on: MALME-3M melanoma
[8] = tested on: OVCAR-8 ovarian
[9] = tested on: DMS 273 small cell lung
[10] = tested on: SK-OV-3 ovarian
[11] = tested on: NCI-H226 lung
[12] = tested on: KM12 colon
[13] = tested on: HL-60(TB) leukemia
[14] = tested on: SK-MEL-5 melanoma
[15] = tested on: LOX IMVI melanoma
[16] = tested on: HS 578T breast
[17] = tested on: A498 renal
[18] = tested on: PC-3 prostate
[19] = tested on: MDA-MB-231 breast
[20] = tested on: CAKI-1 renal
[21] = tested on: XF 498 CNS
[22] = tested on: M14 melanoma
[23] = tested on: UO-31 renal
[24] = tested on: SNB-75 CNS
[25] = tested on: DMS 114 small cell lung
[26] = tested on: DU-145 prostate
[27] = tested on: EKVX NSCLC
[28] = tested on: OVCAR-3 ovarian
[29] = tested on: MCF7 breast
[30] = tested on: HCT-15 colon
[31] = tested on: 786-0 renal
[32] = tested on: SF-295 CNS
[33] = tested on: MDA-N
[34] = tested on: SF-268 CNS
[35] = tested on: UACC-257 melanoma
[36] = tested on: SR leukemia
[37] = tested on: DLD-1 colon
[38] = tested on: COLO 205 colon
[39] = tested on: HCC-2998 colon
[40] = tested on: SK-MEL-2 melanoma
[41] = tested on: NCI/ADR-RES ovarian
[42] = tested on: CCRF-CEM leukemia
[43] = tested on: IGROV1 ovarian
[44] = tested on: LXFL 529 NSCLC
[45] = tested on: KM20L2 colon
[46] = tested on: RPMI-8226 leukemia
[47] = tested on: ACHN renal
[48] = tested on: K-562 leukemia
[49] = tested on: HT29 colon
[50] = tested on: OVCAR-4 ovarian
[51] = tested on: OVCAR-5 ovarian
[52] = tested on: MOLT-4 leukemia
[53] = tested on: NCI-H23 lung
[54] = tested on: HOP-18 NSCLC
[55] = tested on: MDA-MB-435
[56] = tested on: M19-MEL melanoma
[57] = tested on: NCI-H460 lung
[58] = tested on: SN12C renal
[59] = tested on: SK-MEL-28 melanoma
[60] = tested on: SNB-19 CNS
[61] = tested on: SW-620 colon
[62] = tested on: UACC-62 melanoma
[63] = tested on: HCT-116 colon
[64] = tested on: SF-539 CNS
[65] = tested on: U251 CNS
[66] = tested on: HOP-92 NSCLC
[67] = tested on: SNB-78 CNS

In the case of `CC1=C(/C=C/C(C)=C/C=C/C(C)=C/C(=O)O)C(C)(C)CCC1`, the TGI [1] is reported as greater than 100 µM, the TGI [2] is reported as 66 µM and the TGI [3] is reported as greater than 83.7 µM. For the same compound, the TGI [4] was 63 µM, the TGI [5] was greater than 79.4 µM and the TGI [6] was greater than 81.5 µM. It also gave a TGI [7] greater than 75.6 µM, a TGI [8] greater than 77.9 µM and a TGI [9] greater than 100 µM. It also gave a TGI [10] greater than 100 µM, a TGI [11] of 72.6 µM and a TGI [12] of 60.2 µM. The TGI [13] was 59.3 µM, the TGI [14] was 63.3 µM and the TGI [15] was 52.6 µM. For the same compound, the TGI [16] was greater than 81 µM, the TGI [17] was greater than 91.1 µM and the TGI [18] was greater than 100 µM. It also gave a TGI [19] of 99.6 µM, a TGI [20] greater than 93.2 µM and a TGI [21] greater than 100 µM. It also gave a TGI [22] of 71.5 µM, a TGI [23] greater than 74.7 µM and a TGI [24] greater than 100 µM. It also gave a TGI [25] greater than 100 µM, a TGI [26] greater than 100 µM and a TGI [27] greater than 100 µM. For the same compound, the TGI [28] was 63.9 µM, the TGI [29] was greater than 77.9 µM and the TGI [30] was 70.3 µM. It also gave a TGI [31] of 68.1 µM, a TGI [32] greater than 88.6 µM and a TGI [33] greater than 100 µM. It also gave a TGI [34] greater than 75.1 µM, a TGI [35] of 99.7 µM and a TGI [36] greater than 87.4 µM. For the same compound, the TGI [37] was greater than 100 µM, the TGI [38] was 63.6 µM and the TGI [39] was 66.8 µM. It also gave a TGI [40] of 48.8 µM, a TGI [41] of 70 µM and a TGI [42] of 70.8 µM. For the same compound, the TGI [43] was greater than 100 µM, the TGI [44] was greater than 100 µM and the TGI [45] was greater than 100 µM. The TGI [46] was 57.7 µM, the TGI [47] was 75.9 µM and the TGI [48] was greater than 79.9 µM. The TGI [49] was 68.3 µM, the TGI [50] was greater than 100 µM and the TGI [51] was greater than 85.4 µM. For the same compound, the TGI [52] was 69.1 µM, the TGI [53] was 79.3 µM and the TGI [54] was greater than 100 µM. The TGI [55] was greater than 100 µM, the TGI [56] was greater than 100 µM and the TGI [57] was 70.5 µM. For the same compound, the TGI [58] was 72.1 µM, the TGI [59] was greater than 82.2 µM and the TGI [60] was greater than 84.6 µM. It also gave a TGI [61] of 64.2 µM, a TGI [62] greater than 77.4 µM and a TGI [63] of 64.2 µM. For the same compound, the TGI [64] was 75.7 µM, the TGI [65] was 70.7 µM and the TGI [66] was greater than 83.4 µM.

`OCc1cc2ccncc2c2c1[nH]c1ccccc12` was tested, and the TGI [1] was 67.7 µM, the TGI [5] was 24.8 µM and the TGI [6] was 9.77 µM. For the same compound, the TGI [7] was 24.6 µM, the TGI [8] was 49.3 µM and the TGI [9] was 16.5 µM. It also gave a TGI [11] of 6.71 µM, a TGI [12] greater than 100 µM and a TGI [13] of 24.9 µM. For the same compound, the TGI [14] was 25.1 µM, the TGI [15] was 16.3 µM and the TGI [17] was 19.6 µM. It also gave a TGI [20] of 17.9 µM, a TGI [21] of 19.7 µM and a TGI [22] of 43.8 µM. For the same compound, the TGI [23] was 28 µM, the TGI [24] was 19.5 µM and the TGI [25] was 23.1 µM. It also gave a TGI [27] greater than 100 µM, a TGI [30] of 91.5 µM and a TGI [32] of 25.1 µM. It also gave a TGI [34] of 34.2 µM, a TGI [35] of 51.3 µM and a TGI [36] of 20 µM. The TGI [37] was greater than 100 µM, the TGI [38] was 29.4 µM and the TGI [39] was 22.1 µM. It also gave a TGI [40] of 67.5 µM, a TGI [42] greater than 100 µM and a TGI [43] of 17.1 µM. For the same compound, the TGI [44] was 22 µM, the TGI [46] was 37.2 µM and the TGI [47] was 15.9 µM. It also gave a TGI [48] greater than 100 µM, a TGI [49] of 22.8 µM and a TGI [50] of 26.8 µM. For the same compound, the TGI [51] was 26.7 µM, the TGI [52] was greater than 100 µM and the TGI [53] was 48.2 µM. It also gave a TGI [54] of 27.4 µM, a TGI [57] of 19.5 µM and a TGI [58] of 30.3 µM. The TGI [59] was greater than 100 µM, the TGI [61] was 19.7 µM and the TGI [63] was 15.7 µM. It also gave a TGI [64] of 14.8 µM, a TGI [65] of 18.9 µM and a TGI [66] of 82.5 µM. For the same compound, the TGI [67] was 63.1 µM.
